Results reported in patent publication US5254682A, “Cyclic renin inhibitors containing 3(S)-amino-4-cyclohexyl-2(R)-hydroxy-butanoic acid or 4-cyclo-hexyl-(2R, 3S)-dihydroxybutanoic acid or related analogs” (Merck & Co., Inc., priority 1991, dated 1993).
Like-named read-outs stand apart in the source and are kept apart here. Where a SMILES comes first, the peptide text is derived from it. [ ]: non-standard residue; d: D form. The star is where a group is joined. Sta = CC(C)C[C@H](N)[C@@H](O)CC(=O)O; Isovaleryl = CC(C)CC(=O)*

Experiments:
[1] = test system: sodium-deficient Rhesus monkeys; assay: intravenous evaluation of renin inhibitors in conscious sodium-deficient Rhesus monkeys (blood pressure lowering); type: in vivo; conditions: i.v. bolus
Text: The following methods were used for in vivo evaluation of the renin inhibitors of Formula I: Intravenous evaluation of renin inhibitors in concious sodium-deficient Rhesus monkeys: Rhesus monkeys, male and female, weighing 2.6-4.5 Kg, were surgically prepared with chronic arterial and venous catheters and vascular access ports for direct monitoring of mean arterial pressure (MAP) and heart rate (HR). The animals were maintained on a low sodium diet (1.2 mmol Na/day) plus fruit for a week, and administered LASIX (furosemide) at 2.5 mg/Kg, intramuscularly the evening prior to the experiment. The animals had been trained to sit quietly in the chairs with water ad libium for the duration of the experiment. The inhibitors were administered by bolus injection using 0.5% acetic acid-5% dextrose in water as the vehicle (0.4 ml/Kg), and MAP and HR were measured. Blood samples were withdrawn at different time intervals beginning at the nadir of hypotensive response. PRA was determined as described above. […] A projected ED50 dose for each inhibitor was calculated using the following formula: ED50 (Test Inhibitor, umoles/Kg)=ED50 (SCRIP) X [IC50 (Test Inhibitor)/IC50 (SCRIP)], where the IC50 values were determined against human plasma renin. […] Percent inhibition of monkey PRA, changes in MAP and HR were calculated and plotted against time. […]

[2] = amide bond, 2 steps

Structure (SMILES): CC(C)CC(=O)N[C@@H](Cc1c[nH]cn1)C(=O)N1CCC[C@H]1C(=O)N[C@@H](Cc1ccccc1)C(=O)N[C@@H](Cc1c[nH]cn1)C(=O)N[C@@H](CC(C)C)[C@@H](O)CC(=O)N[C@@H](CC(C)C)C(=O)N[C@@H](Cc1ccccc1)C(N)=O [SCRIP, Iva-His-Pro-Phe-His-Sta-Leu-Phe-NH2] (Isovaleryl-HPFH[Sta]LF-NH2)
- ED50 (i.v. dose required to lower blood pressure by 50% of the maximal response) [1]: 0.039 µmol/kg

Structure (SMILES): O=C(N[C@H]1CSCCC[C@H](CN2CCOCC2)OC(=O)[C@H](O)[C@H](CC2CCCCC2)NC1=O)OCc1ccccc1
- ring closure, yield of all isomers ([2]; from N[C@@H](CC1CCCCC1)[C@@H](O)C(=O)O[C@H](CCCSC[C@H](NC(=O)OCc1ccccc1)C(=O)O)CN1CCOCC1): 38%

Structure (SMILES): CC(C)(C)OC(=O)N[C@H]1CCC(=O)NCCCC2(OCCO2)[C@H](O)[C@H](CC2CCCCC2)NC1=O
- ring closure, yield of all isomers ([2]; from CC(C)(C)OC(=O)N[C@@H](CCC(=O)OCc1ccccc1)C(=O)N[C@@H](CC1CCCCC1)[C@@H](O)C1(CCCN=[N+]=[N-])OCCO1, DPPA, triethylamine): 30%

Structure (SMILES): CC1CC(=O)NCCOC(=O)[C@H](O)[C@H](CC2CCCCC2)NC(=O)[C@H]1NC(=O)OCc1ccccc1 (stereo partly shown)
- ring closure, yield of all isomers ([2]; from CC(CC(=O)NCCOC(=O)[C@@H]1OC(C)(C)N(C(=O)OC(C)(C)C)[C@H]1CC1CCCCC1)[C@H](NC(=O)OCc1ccccc1)C(=O)OCC[Si](C)(C)C): 62%

Structure (SMILES): CC(C)CC1CNC(=O)CC[C@H](NC(=O)OCc2ccccc2)C(=O)N[C@@H](CC2CCCCC2)[C@@H](O)C(=O)O1 (stereo partly shown)
- ring closure, yield of all isomers ([2]; from CC(C)CC(CNC(=O)CC[C@H](NC(=O)OCc1ccccc1)C(=O)OC(C)(C)C)OC(=O)[C@@H]1OC(C)(C)N(C(=O)OC(C)(C)C)[C@H]1CC1CCCCC1, THF): 51%

Structure (SMILES): CCCCC1CNC(=O)CC[C@H](NC(=O)OCc2ccccc2)C(=O)N[C@@H](CC2CCCCC2)[C@@H](O)C(=O)O1 (stereo partly shown)
- ring closure, yield of all isomers ([2]; from CCCCC(CNC(=O)CC[C@H](NC(=O)OCc1ccccc1)C(=O)OC(C)(C)C)OC(=O)[C@@H]1OC(C)(C)N(C(=O)OC(C)(C)C)[C@H]1CC1CCCCC1, EDC/HOBt): 54%

Structure (SMILES): O=C1CC[C@H](NC(=O)OCc2ccccc2)C(=O)N[C@@H](CC2CCCCC2)[C@@H](O)C(=O)OC(CN2CCOCC2)CN1 (stereo partly shown)
- ring closure, yield of all isomers ([2]; from CC(C)(C)OC(=O)[C@H](CCC(=O)NCC(CN1CCOCC1)OC(=O)[C@@H]1OC(C)(C)N(C(=O)OC(C)(C)C)[C@H]1CC1CCCCC1)NC(=O)OCc1ccccc1): 61%

Structure (SMILES): O=C1CC[C@H](NC(=O)OCc2ccccc2)C(=O)N[C@@H](CC2CCCCC2)[C@@H](O)C(=O)OC(CN2CCOCC2)CO1 (stereo partly shown)
- ring closure, yield of all isomers ([2]; from CC(C)(C)OC(=O)[C@H](CCC(=O)OCC(CN1CCOCC1)OC(=O)[C@@H]1OC(C)(C)N(C(=O)OC(C)(C)C)[C@H]1CC1CCCCC1)NC(=O)OCc1ccccc1, THF): 32%

Structure (SMILES): O=C(N[C@H]1CSCCCCOC(=O)[C@H](O)[C@H](CC2CCCCC2)NC1=O)OCc1ccccc1
- ring closure, yield of all isomers ([2]; from N[C@@H](CC1CCCCC1)[C@@H](O)C(=O)OCCCCSC[C@H](NC(=O)OCc1ccccc1)C(=O)O): 34%

Structure (SMILES): CC(C)(C)OC(=O)N[C@H]1CNC(=O)CCCCOC(=O)[C@H](O)[C@H](CC2CCCCC2)NC1=O
- ring closure, yield of all isomers ([2]; from CC(C)(C)OC(=O)N[C@@H](CNC(=O)OCc1ccccc1)C(=O)N[C@@H](CC1CCCCC1)[C@@H](O)C(=O)OCCCCC(=O)OCc1ccccc1, DPPA, triethylamine): 27%
